Reference: ChEMBL document CHEMBL1143947, “Synthesis and in silico biological activity evaluation of new N-substituted pyrazolo-oxazin-2-one systems” (Bioorg Med Chem, 2008)
pIC50: −log10 of the molar value.

Assays:
[1] = molecular target: Prostaglandin G/H synthase 1 (Ovis aries) (UniProt P05979); test: Inhibition of COX1
[2] = molecular target: Prostaglandin G/H synthase 1 (Ovis aries) (UniProt P05979); test: Inhibition of COX1 at 100 uM
[3] = molecular target: Prostaglandin G/H synthase 1 (Ovis aries) (UniProt P05979); test: Inhibition of COX1 at 200 uM

Sequence of Prostaglandin G/H synthase 1 (Ovis aries) (P05979 whole entry, looked up): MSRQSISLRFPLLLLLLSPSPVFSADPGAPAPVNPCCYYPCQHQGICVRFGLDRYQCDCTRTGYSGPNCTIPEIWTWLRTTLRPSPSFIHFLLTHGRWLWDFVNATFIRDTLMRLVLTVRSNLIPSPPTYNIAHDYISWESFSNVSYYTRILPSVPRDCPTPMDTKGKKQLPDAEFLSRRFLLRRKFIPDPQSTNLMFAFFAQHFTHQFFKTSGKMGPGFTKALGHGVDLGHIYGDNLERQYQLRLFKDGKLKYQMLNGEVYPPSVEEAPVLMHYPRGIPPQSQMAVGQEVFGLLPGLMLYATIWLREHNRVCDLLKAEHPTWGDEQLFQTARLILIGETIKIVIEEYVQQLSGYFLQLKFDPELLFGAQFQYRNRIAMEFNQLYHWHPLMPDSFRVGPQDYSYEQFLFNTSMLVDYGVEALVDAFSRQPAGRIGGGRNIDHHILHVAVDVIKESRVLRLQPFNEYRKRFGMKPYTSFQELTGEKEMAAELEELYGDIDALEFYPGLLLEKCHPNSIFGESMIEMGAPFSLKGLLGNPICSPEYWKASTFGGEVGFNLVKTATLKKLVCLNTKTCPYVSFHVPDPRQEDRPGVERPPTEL

pIC50 [1] | inhibition [2] [%] | inhibition [3] [%] | Compound
4.10 | 61.8 | – | CC1=C/C(=C2\C(=O)N(c3ccccc3)N=C2C)OC(=O)N1c1ccccc1
– | 15 | – | CC1=C/C(=C2\C(=O)N(c3ccccc3)N=C2C)OC(=O)N1c1ccc(Br)cc1
– | 16 | – | CCCN1C(=O)O/C(=C2/C(=O)N(c3ccccc3)N=C2C)C=C1C
4.04 | 54.6 | – | CC1=C/C(=C2\C(=O)N(c3ccccc3)N=C2C)OC(=O)N1c1ccc(C)cc1
– | 18 | – | CC1=C/C(=C2\C(=O)N(c3ccccc3)N=C2C)OC(=O)N1Cc1ccccc1
3.57 | 22.6 | – | COc1ccc(N2C(=O)O/C(=C3/C(=O)N(c4ccccc4)N=C3C)C=C2C)cc1
– | 0 | 19.9 | CCN1C(=O)O/C(=C2/C(=O)N(c3ccccc3)N=C2C)C=C1C
3.60 | 21.9 | – | CC1=C/C(=C2\C(=O)N(c3ccccc3)N=C2C)OC(=O)N1c1ccc(Cl)cc1
